Assay results taken from ChEMBL document CHEMBL1148572, “1-((S)-2-aminopropyl)-1H-indazol-6-ol: a potent peripherally acting 5-HT2 receptor agonist with ocular hypotensive activity” (J Med Chem, 2006).
pEC50, pIC50: −log10 of the molar value.

How the values were obtained:
[1] = biological target: 5-hydroxytryptamine receptor 2A (Rattus norvegicus, UniProt P14842); format: tissue-based, Cerebral cortex
[2] = biological target: Glutamate [NMDA] receptor (Homo sapiens) (UniProt Q05586+Q12879+Q13224+O15399+O60391+Q14957+Q8TCU5); assay: Inhibition of agonist site of NMDA receptor at 10 uM; format: functional
[3] = biological target: 5-hydroxytryptamine receptor 2B (Rattus norvegicus, UniProt P30994); assay: Activity against 5HT2B receptor in longitudinal stomach fundus strips in wistar rats
[4] = biological target: T1, Atrial natriuretic peptide receptor 1 (Homo sapiens) (UniProt P16066); assay: Inhibition of ANP A at 10 uM
T1 sequence (whole entry): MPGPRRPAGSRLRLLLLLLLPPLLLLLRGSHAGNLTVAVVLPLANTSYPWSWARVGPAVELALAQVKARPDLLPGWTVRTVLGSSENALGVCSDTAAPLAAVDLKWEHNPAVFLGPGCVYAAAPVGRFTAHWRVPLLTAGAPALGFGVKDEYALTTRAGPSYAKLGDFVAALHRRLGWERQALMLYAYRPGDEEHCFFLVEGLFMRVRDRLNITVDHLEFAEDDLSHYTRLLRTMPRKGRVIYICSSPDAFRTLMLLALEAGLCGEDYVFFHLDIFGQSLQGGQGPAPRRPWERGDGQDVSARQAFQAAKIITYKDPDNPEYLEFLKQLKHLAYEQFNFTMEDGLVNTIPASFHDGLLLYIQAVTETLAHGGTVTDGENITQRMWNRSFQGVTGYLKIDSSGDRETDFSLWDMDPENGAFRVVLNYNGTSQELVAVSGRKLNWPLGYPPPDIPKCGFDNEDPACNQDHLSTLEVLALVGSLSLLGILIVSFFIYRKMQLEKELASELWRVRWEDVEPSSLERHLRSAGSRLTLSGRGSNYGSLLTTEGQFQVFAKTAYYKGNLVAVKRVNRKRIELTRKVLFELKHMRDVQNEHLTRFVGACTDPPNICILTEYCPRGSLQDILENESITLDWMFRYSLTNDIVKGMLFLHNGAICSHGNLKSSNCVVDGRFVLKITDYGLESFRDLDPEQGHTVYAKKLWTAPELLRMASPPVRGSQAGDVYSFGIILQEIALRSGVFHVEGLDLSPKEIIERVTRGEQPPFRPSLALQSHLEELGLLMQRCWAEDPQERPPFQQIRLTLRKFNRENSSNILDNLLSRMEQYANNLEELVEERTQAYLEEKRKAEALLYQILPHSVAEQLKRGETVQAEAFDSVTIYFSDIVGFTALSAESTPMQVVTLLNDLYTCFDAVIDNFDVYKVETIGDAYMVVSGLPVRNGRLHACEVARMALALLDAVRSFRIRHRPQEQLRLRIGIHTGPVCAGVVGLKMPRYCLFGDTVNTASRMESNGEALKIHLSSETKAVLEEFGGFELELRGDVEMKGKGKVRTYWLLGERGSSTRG

Homo sapiens = species on record: Homo sapiens; assay: Inhibition of inositol triphosphate IP3 at 10 uM; format: functional
[5] = biological target: T2, L-type calcium channel, dihydropyridine site (Homo sapiens, UniProt O60840+Q01668+Q13698+Q13936); assay: Inhibitory activity at dihydropyridine site of Calcium channel L type at 10 uM; format: protein assay
[6] = biological target: T3, Endothelin-1 receptor (Homo sapiens) (UniProt P25101); assay: Inhibition of human recombinant endothelin 1 receptor 1 nM
T3 sequence (whole entry): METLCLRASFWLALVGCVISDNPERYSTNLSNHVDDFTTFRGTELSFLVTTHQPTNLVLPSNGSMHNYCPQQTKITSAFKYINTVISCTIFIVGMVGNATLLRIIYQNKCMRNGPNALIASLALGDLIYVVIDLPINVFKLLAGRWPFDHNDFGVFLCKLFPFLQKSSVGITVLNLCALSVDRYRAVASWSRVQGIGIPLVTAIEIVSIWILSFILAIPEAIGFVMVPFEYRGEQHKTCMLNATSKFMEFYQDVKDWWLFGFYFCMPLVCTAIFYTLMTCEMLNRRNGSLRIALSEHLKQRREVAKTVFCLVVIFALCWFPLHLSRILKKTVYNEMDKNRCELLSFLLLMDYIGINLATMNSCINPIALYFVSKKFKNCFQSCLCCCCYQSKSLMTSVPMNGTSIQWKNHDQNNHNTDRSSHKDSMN

[7] = biological target: T2, L-type calcium channel, dihydropyridine site; assay: Inhibitory activity at dihydropyridine site of Calcium channel L type at 100 nM; format: protein assay
[8] = Inhibition of alpha-bungarotoxin insensitive nicotinic receptor at 10 uM
[9] = biological target: T2, L-type calcium channel, dihydropyridine site; assay: Inhibitory activity at dihydropyridine site of Calcium channel L type at 1 nM; format: protein assay
[10] = biological target: T4, Type-1 angiotensin II receptor (Homo sapiens) (UniProt P30556); assay: Inhibition of type 1 angiotensin 2 receptor at 100 nM
T4 sequence (whole entry): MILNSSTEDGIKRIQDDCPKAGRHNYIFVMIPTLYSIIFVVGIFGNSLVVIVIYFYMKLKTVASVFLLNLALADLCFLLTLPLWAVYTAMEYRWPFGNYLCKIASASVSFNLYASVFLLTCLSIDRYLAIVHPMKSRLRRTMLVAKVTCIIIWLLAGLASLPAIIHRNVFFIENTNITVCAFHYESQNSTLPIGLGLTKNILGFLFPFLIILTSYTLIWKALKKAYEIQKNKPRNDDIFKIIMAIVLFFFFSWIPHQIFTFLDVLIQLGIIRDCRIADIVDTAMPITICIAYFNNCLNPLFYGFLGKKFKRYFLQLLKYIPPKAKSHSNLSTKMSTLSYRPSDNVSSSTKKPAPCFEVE

[11] = biological target: T3, Endothelin-1 receptor (Homo sapiens); assay: Inhibition of human recombinant endothelin 1 receptor at 10 uM
[12] = Half life in phosphate buffer at pH 7.4 in 25 degC; format: ADME
[13] = biological target: T5, Alpha-2C adrenergic receptor (Homo sapiens, UniProt P18825); assay: Activity at adrenergic Alpha-2C receptor expressed in rat-mouse hybrid […] cell by adenylyl cyclase assay; format: functional, cell-based
T5 sequence (P18825 whole entry): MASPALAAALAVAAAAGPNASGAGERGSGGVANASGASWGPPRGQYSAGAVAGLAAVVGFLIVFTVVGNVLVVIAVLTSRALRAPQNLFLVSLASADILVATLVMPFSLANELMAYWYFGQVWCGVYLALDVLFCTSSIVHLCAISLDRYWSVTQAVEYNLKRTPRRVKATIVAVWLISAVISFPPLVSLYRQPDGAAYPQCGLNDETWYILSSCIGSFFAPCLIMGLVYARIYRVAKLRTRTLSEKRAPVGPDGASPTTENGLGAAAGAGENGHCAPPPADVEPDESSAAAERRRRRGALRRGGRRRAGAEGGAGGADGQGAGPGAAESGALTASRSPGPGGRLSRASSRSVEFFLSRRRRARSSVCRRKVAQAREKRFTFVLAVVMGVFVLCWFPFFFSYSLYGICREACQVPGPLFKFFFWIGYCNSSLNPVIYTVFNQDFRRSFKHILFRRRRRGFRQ

[14] = biological target: Glutamate receptor ionotropic AMPA (Homo sapiens) (UniProt P48058+P42263+P42262+P42261); assay: Inhibition of AMPA receptor at 100 nM; format: protein-complex assay

Chain of 5-hydroxytryptamine receptor 2A (P14842 whole entry): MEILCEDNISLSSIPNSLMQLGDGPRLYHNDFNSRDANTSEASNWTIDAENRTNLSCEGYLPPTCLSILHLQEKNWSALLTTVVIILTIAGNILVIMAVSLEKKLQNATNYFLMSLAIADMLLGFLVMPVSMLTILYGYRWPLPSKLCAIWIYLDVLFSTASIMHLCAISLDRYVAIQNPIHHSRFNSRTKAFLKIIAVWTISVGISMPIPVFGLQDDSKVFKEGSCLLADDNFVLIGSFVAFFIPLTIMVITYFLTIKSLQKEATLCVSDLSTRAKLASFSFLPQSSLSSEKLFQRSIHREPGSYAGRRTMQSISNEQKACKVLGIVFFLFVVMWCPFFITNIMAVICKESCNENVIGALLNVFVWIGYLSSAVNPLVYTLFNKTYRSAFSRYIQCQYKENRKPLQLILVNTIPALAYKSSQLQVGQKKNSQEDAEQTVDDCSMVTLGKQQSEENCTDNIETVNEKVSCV
Chain of 5-hydroxytryptamine receptor 2B (P30994 whole entry): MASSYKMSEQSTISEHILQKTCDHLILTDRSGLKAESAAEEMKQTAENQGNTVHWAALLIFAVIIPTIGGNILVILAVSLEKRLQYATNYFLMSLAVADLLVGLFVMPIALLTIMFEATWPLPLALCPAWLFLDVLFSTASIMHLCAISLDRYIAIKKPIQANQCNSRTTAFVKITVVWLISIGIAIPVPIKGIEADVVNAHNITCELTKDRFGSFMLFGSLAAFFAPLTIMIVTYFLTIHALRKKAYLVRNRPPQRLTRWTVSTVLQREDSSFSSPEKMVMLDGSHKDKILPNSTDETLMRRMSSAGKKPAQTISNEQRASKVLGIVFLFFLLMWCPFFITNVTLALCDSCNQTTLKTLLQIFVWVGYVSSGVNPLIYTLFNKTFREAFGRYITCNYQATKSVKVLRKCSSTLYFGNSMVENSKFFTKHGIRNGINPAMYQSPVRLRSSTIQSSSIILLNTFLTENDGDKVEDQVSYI

Structure (SMILES): C[C@H](N)Cn1ncc2ccc(O)cc21
- pIC50 [1]: 9.24
- inhibition [2]: 9.07%
- pEC50 [3]: 8.70
- inhibition [4]: -5.3%
- inhibition (Homo sapiens): 2.11%
- inhibition at 10 µM [5]: 15.2%
- inhibition [6]: 2.41%
- inhibition at 0.1 µM [7]: 12%
- inhibition [8]: 7.7%
- inhibition at 0.001 µM [9]: 2.17%
- inhibition [10]: 7.33%
- inhibition [11]: -6.96%
- T1/2 [12]: 4.6 yr
- pEC50 [13]: 5.00
- inhibition [14]: 9.45%
